Reference: US11919901B2 (Syndax Pharmaceuticals, Inc., priority 2021, dated 2024)

Tests used:
[1] = biological target: hERG (Homo sapiens (Human), UniProt Q12809); assay: Patch clamp assay (hERG tail currents, whole-cell); format: cell-based; conditions: hERG transfected HEK 293 cells; for hERG % Remaining 10 μM: 10 μM compound; for hERG % Remaining 30 μM: 30 μM compound; for hERG % Remaining 1 μM: 1 μM compound; for hERG % Remaining 3 μM: 3 μM compound; for hERG % Remaining 100 μM: 100 μM compound
[2] = biological target: Menin-MLL (Homo sapiens (Human), UniProt O00255); assay: Determination of binding constants (Ki) to Menin-MLL (HTRF); conditions: HTRF, 0.25 nM H-FL-Menin, 3.2 nM FITC-MLL-4-43, 24 hr incubation; for Ki: read-out: Menin-MLL Ki HTRF Assay: Ki
Menin-MLL, sequence (O00255 whole entry): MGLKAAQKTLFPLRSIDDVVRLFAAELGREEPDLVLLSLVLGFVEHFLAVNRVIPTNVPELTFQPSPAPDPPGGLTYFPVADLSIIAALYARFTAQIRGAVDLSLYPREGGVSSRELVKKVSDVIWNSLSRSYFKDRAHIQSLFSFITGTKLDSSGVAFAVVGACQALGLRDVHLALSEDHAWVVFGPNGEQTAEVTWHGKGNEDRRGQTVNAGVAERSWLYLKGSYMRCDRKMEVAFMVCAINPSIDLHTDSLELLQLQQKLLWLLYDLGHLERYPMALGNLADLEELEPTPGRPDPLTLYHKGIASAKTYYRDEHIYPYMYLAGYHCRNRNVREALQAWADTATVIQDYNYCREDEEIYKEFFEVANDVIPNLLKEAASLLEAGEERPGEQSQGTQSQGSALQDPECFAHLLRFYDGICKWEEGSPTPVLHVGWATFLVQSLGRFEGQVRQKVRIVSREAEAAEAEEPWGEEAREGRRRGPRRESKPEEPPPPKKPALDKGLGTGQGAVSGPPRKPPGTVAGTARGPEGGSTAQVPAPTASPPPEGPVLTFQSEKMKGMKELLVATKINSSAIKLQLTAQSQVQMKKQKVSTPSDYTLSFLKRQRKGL

hERG, sequence (Q12809 whole entry): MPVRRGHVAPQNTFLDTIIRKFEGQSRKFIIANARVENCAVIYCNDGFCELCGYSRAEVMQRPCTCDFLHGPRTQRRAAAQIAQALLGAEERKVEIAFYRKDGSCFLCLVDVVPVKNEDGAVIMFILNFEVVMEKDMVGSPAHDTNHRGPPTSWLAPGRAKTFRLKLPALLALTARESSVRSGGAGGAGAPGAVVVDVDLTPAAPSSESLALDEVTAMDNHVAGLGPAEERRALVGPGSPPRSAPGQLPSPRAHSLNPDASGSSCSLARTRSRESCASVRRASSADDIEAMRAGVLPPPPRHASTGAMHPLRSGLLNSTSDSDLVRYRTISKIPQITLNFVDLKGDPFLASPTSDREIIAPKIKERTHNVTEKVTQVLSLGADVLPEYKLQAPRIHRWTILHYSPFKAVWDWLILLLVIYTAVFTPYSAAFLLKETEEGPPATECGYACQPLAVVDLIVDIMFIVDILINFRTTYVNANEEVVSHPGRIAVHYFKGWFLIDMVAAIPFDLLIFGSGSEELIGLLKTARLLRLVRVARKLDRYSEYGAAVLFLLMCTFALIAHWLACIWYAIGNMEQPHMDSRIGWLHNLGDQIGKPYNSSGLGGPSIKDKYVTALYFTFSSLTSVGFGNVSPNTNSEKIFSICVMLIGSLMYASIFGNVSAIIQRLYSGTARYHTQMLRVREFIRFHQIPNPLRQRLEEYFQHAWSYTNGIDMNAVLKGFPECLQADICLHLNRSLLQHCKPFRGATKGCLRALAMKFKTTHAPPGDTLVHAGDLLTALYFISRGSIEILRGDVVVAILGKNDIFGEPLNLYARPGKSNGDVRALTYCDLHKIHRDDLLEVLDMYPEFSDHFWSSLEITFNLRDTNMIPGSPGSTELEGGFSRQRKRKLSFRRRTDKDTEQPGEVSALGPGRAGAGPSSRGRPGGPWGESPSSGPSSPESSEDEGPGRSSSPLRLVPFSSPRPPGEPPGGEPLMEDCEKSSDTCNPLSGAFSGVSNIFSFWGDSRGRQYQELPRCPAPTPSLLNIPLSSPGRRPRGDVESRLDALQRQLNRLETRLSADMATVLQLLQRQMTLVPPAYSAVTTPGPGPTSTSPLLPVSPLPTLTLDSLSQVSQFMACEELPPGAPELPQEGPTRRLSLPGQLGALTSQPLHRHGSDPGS

| Structure (SMILES) | hERG % Remaining 10 μM [1] | hERG % Remaining 30 μM [1] | EC50 [2] | Ki [2] | hERG % Remaining 1 μM [1] | hERG % Remaining 3 μM [1] | hERG % Remaining 100 μM [1] | IC50 [1] |
| --- | --- | --- | --- | --- | --- | --- | --- | --- |
| CCN(C(=O)c1cc(F)ccc1Oc1cncnc1N1CC2(CCN(C[C@@H]3CC[C@@H](NC(=O)OC(C)(C)C)CO3)CC2)C1)C(C)C [Compound 11, tert-butyl ((3R,6S)-6-((2-(5-(2-(ethyl(isopropyl)carbamoyl)-4-fluorophenoxy)pyrimidin-4-yl)-2,7-diazaspiro[3.5]nonan-7-yl)methyl)tetrahydro-2H-pyran-3-yl)carbamate] | + (“+” means <33%) | + (“+” means <33%) | < 50 nM | < 1 nM | – | – | – | – |
| CC(C)N(C(=O)c1cc(F)ccc1Oc1cncnc1N1CC2(CCN(C[C@@H]3CC[C@@H](NS(C)(=O)=O)CO3)CC2)C1)C(C)C [Compound 12, 5-fluoro-N,N-diisopropyl-2-((4-(7-(((2S,5R)-5-(methylsulfonamido)tetrahydro-2H-pyran-2-yl)methyl)-2,7-diazaspiro[3.5]nonan-2-yl)pyrimidin-5-yl)oxy)benzamide] | +++ (“+++” means ≥66%) | +++ (“+++” means ≥66%) | < 50 nM | < 1 nM | +++ (“+++” means ≥66%) | +++ (“+++” means ≥66%) | ++ (“++” means ≥33% and <66%) | ≥ 50 µM |
| CCS(=O)(=O)N[C@@H]1CC[C@@H](CN2CCC3(CC2)CN(c2ncncc2Oc2ccc(F)cc2C(=O)N(C(C)C)C(C)C)C3)OC1 [Compound 13, 2-((4-(7-(((2S,5R)-5-(ethylsulfonamido)tetrahydro-2H-pyran-2-yl)methyl)-2,7-diazaspiro[3.5]nonan-2-yl)pyrimidin-5-yl)oxy)-5-fluoro-N,N-diisopropylbenzamide] | +++ (“+++” means ≥66%) | ++ (“++” means ≥33% and <66%) | < 50 nM | < 1 nM | +++ (“+++” means ≥66%) | +++ (“+++” means ≥66%) | ++ (“++” means ≥33% and <66%) | ≥ 50 µM |
| CC(C)N(C(=O)c1cc(F)ccc1Oc1cncnc1N1CC2(CCN(C[C@@H]3CC[C@@H](NS(=O)(=O)C(C)C)CO3)CC2)C1)C(C)C [Compound 14, 5-fluoro-N,N-diisopropyl-2-((4-(7-(((2S,5R)-5-((1-methylethyl)sulfonamido)tetrahydro-2H-pyran-2-yl)methyl)-2,7-diazaspiro[3.5]nonan-2-yl)pyrimidin-5-yl)oxy)benzamide] | +++ (“+++” means ≥66%) | ++ (“++” means ≥33% and <66%) | < 50 nM | < 1 nM | – | +++ (“+++” means ≥66%) | + (“+” means <33%) | 25 to 50 µM |
| CC(C)N(C(=O)c1cc(F)ccc1Oc1cncnc1N1CC2(CCN(C[C@@H]3CC[C@@H](NS(=O)(=O)C4CC4)CO3)CC2)C1)C(C)C [Compound 15, 2-((4-(7-(((2S,5R)-5-(cyclopropanesulfonamido)tetrahydro-2H-pyran-2-yl)methyl)-2,7-diazaspiro[3.5]nonan-2-yl)pyrimidin-5-yl)oxy)-5-fluoro-N,N-diisopropylbenzamide] | +++ (“+++” means ≥66%) | ++ (“++” means ≥33% and <66%) | < 50 nM | < 1 nM | – | +++ (“+++” means ≥66%) | + (“+” means <33%) | 25 to 50 µM |
| CC(C)N(C(=O)c1cc(F)ccc1Oc1cncnc1N1CC2(CCN(C[C@@H]3CC[C@@H](NS(=O)(=O)C4COC4)CO3)CC2)C1)C(C)C [Compound 16, 5-fluoro-N,N-diisopropyl-2-((4-(7-(((2S,5R)-5-(oxetane-3-sulfonamido)tetrahydro-2H-pyran-2-yl)methyl)-2,7-diazaspiro[3.5]nonan-2-yl)pyrimidin-5-yl)oxy)benzamide] | +++ (“+++” means ≥66%) | +++ (“+++” means ≥66%) | < 50 nM | < 1 nM | – | – | – | – |
